Experimental data as given in paper PMC11235171, “Microproteins encoded by noncanonical ORFs are a major source of tumor-specific antigens in a liver cancer patient meta-cohort” (Science Advances, 2024).

How the values were obtained:
[1] = test system: HHD-DR1 mice; experiment: IFN-γ intracellular cytokine staining (flow cytometry) of CD4+ and CD8+ T cells after peptide immunization; assay type: in vivo, mouse; details: splenocytes of immunized mice stimulated with peptide 10 μM, 4 hours, GolgiStop/GolgiPlug; cell density plots
Procedure: (§1) Eight-week-old female HHD-DR1 mice, transgenic for human HLA-A*02:01 molecules ([82]), were used. After study approval by the ethics review committee (reference no. 036-21), mice were bred and housed under pathogen-free conditions in the animal facility of the Center for Applied Medical Research (CIMA). Mice (n = 4 per group) were immunized with peptides (100 nmol per peptide), polyinosinic:polycytidylic acid (50 μg per mouse), and αCD40 (50 μg per mouse). The peptides and adjuvants were administered simultaneously via subcutaneous injection of 100 μl of the mixture resuspended in phosphate-buffered saline. Mice received a boost on day 7 and were euthanized on day 14.
Splenocytes were stimulated with the peptides (10 μM) in the presence of GolgiStop and GolgiPlug (BD Biosciences). Four hours later, cells were surface stained with the following antibodies: CD3ε-Percp-Cy5 (145-2 C11), CD4-FITC (RM4-5), and CD8-BV421 (53-6.7) from BioLegend. Next, cells were fixed and permeabilized using BD Cytofix/Cytoperm Fixation/Permeablization Kit and intracellularly stained with IFNγ-PE (XMG1.2) antibodies. Samples were acquired with a Cytoflex (Beckman Coulter) flow cytometer and were analyzed using FlowJo software (Tree Star).

[2] = test system: HHD-DR1 mice; experiment: IFN-γ ELISPOT on splenocytes of peptide-immunized HLA-A*02:01 transgenic mice; assay type: in vivo, mouse; details: for IFN-γ signal after peptide immunization (immunogenicity), in words: HLA-A*02:01 / HLA-DRB1*01 transgenic mice immunized twice, T cell response measured at day 14 by IFN-γ ELISPOT
Procedure: as §1
The spleens of immunized mice were processed to measure the number of IFN-γ secreting cells. Splenocytes (8 × 10^5 cells per well) were stimulated for 24 hours with peptides (10 μg/ml). The number of IFN-γ secreting cells was quantified by ImmunoSpot automated counter (Cellular Technology Limited) using the Spot 3 CTL CellCounting software.

Sequence | IFN-γ producing CD8+ versus CD4+ T cells (ICS), in words [1] | number of IFN-γ secreting cells (IFNγSFC) ([2]; HHD-DR1 mice, n = 4 per group, 100 nmol peptide + poly I:C + αCD40 s.c., boost day 7, spleens day 14, splenocytes stimulated 24 hours with peptide 10 μg/ml, all four replicates) | IFN-γ signal after peptide immunization (immunogenicity), in words [2]
WMSLDWELYV | signal for CD8+ cells only | > 1000 IFNγSFC per 8 × 10^5 cells | strong IFN-γ signal
GLFHIYHKI | signal for CD8+ cells only |  | strong IFN-γ signal
